The source of these data is ChEMBL document CHEMBL5223166, “Thienopyrimidine Derivatives as GPR55 Receptor Antagonists: Insight into Structure-Activity Relationship” (ACS Med Chem Lett, 2023).

Calls of active or inactive are those of the source. The calls are words filed in the database; no cut-off is given here. Some results are limits rather than exact numbers.

The target in data set [1] is Cannabinoid receptor 2 (Homo sapiens, UniProt P34972). Briefly: Displacement of [3H]CP55940 from human CB2 receptor expressed in HEK293 cell membranes assessed as inhibition constant incubated for 90 mins by liquid scintillation spectrometry analysis. On the set-up: species or system Membrane. For orientation: Displacement assays read how much labelled ligand stays bound in the presence of the test substance.
Cannabinoid receptor 2, sequence (P34972 whole entry): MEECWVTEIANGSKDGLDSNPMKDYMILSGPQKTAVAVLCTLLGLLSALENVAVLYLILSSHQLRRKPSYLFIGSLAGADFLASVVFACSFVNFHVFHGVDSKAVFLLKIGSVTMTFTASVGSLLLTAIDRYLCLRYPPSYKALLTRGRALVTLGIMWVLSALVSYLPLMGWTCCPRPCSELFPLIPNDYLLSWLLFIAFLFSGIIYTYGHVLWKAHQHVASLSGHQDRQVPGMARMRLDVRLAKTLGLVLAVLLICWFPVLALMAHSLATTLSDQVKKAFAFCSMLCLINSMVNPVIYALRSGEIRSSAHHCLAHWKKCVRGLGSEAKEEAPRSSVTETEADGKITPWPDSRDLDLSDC

The target in data set [2] is Cannabinoid receptor 1 (Homo sapiens, UniProt P21554). Briefly: Displacement of [3H]CP55940 from human CB1 receptor expressed in HEK293 cell membranes assessed as inhibition constant incubated for 90 mins by liquid scintillation spectrometry analysis. The arrangement: species or system Membrane.
Cannabinoid receptor 1, sequence (P21554 whole entry, the tested form may be a part): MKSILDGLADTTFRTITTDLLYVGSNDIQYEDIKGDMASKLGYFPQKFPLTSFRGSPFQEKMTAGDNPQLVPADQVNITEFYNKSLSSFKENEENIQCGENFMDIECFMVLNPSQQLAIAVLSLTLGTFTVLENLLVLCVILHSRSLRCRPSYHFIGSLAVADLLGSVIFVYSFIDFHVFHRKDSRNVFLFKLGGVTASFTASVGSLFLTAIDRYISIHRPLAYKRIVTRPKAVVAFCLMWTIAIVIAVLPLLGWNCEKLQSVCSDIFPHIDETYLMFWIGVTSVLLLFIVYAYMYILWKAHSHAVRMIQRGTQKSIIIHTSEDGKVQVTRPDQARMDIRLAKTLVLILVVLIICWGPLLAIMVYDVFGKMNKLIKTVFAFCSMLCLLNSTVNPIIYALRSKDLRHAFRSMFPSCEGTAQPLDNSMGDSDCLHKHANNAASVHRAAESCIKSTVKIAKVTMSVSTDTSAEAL
Data set [3] has as its target T1, G-protein coupled receptor 55 (Homo sapiens, UniProt Q9Y2T6). Nature of the data set: Antagonist activity at beta-galactosidase fused human GPR55 expressed in CHO cells assessed as inhibition of LPI-induced receptor activation by measuring beta-arrestin 2 recruitment at upto 10 uM incubated for 90 mins by PathHunter chemiluminescence based assay. The format is cell-based.

For data set [4], the target named is T1, G-protein coupled receptor 55. Briefly: Inverse agonist activity at human GPR55 expressed in HEK293 cells coexpressing serum response element assessed as reduction in MAPK/ERK signalling pathway by measuring SRE response incubated for 5 hrs in serum-free medium by luciferin based bioluminescence analysis. The data set is classed as cell-based.
In data set [5] the test system is CHO. Briefly: Cytotoxicity against CHO cells assessed as reduction in cell viability at upto 10 uM incubated for 24 hrs by XTT assay. The format is toxicity, cell-based, Cricetulus griseus. Conditions: chinese hamster.
Data set [6] deals with T1, G-protein coupled receptor 55. Nature of the data set: Antagonist activity at beta-galactosidase fused human GPR55 expressed in CHO cells assessed as inhibition of LPI-induced receptor activation by measuring beta-arrestin 2 recruitment incubated for 90 mins by PathHunter chemiluminescence based assay. The format is cell-based. (Recruitment of arrestin is a read-out of receptor activation apart from second messengers.)

The target is the same in data set [7]. Nature of the data set: Antagonist activity at human GPR55 expressed in HEK293 cells coexpressing serum response element assessed as inhibition of LPI-induced MAPK/ERK signalling pathway by measuring SRE response incubated for 5 hrs in serum-free medium by luciferin based bioluminescence analysis. The data set is classed as cell-based.
For data set [8] the target is unchanged. Briefly: Antagonist activity at human GPR55 expressed in human U2OS cells assessed as inhibition of LPI-induced receptor activation by measuring beta-arrestin 2 recruitment preincubated for 30 mins followed by LPI addition and measured after 75 mins by microplate reader analysis. The format is cell-based.

T1 sequence (Q9Y2T6 whole entry, the tested form may be a part): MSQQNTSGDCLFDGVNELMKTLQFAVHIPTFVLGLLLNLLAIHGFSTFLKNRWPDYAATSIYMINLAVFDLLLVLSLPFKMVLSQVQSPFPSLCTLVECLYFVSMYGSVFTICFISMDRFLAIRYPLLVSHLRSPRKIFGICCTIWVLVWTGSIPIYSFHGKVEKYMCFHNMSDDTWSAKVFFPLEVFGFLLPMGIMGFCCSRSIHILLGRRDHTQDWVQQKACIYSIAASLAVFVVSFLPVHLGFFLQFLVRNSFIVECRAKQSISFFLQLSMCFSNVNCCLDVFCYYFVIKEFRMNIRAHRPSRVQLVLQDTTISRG

The term Ki denotes the dissociation constant of the complex between target and ligand, obtained from inhibition or displacement. As to `Cc1nc(N2CCN(C(=O)c3ccco3)CC2)c2c(n1)sc1ccccc12`, the Ki in data set [1] and in data set [2] was greater than 4 µM in each case.

Consider `COCc1nc(N2CCN(C(=O)c3ccco3)CC2)c2c3c(sc2n1)CC(C)(C)CC3`, for which the inhibition entry in data set [3] is “inactive”. Further, the Ki in data set [1] and in data set [2] was greater than 4 µM each time.

On to `Cc1c(Cl)nc(C)n(C)c1=O`, for which the Ki in data set [1] and in data set [2] was greater than 4 µM in each case.

As for `Cc1nc(O)c(C)c(Cl)n1`, the Ki in data set [1] and in data set [2] was greater than 4 µM throughout.

Consider `CC1(C)CCc2c(sc3nc(CO)nc(N4CCN(C(=O)c5ccco5)CC4)c23)C1`, for which the Ki in data set [1] and in data set [2] was greater than 4 µM throughout.

One may read the EC50 as the concentration at which the effect is half-maximal. One may read the IC50 as the concentration that inhibits the measured activity by half. For the compound `Cc1nc(N2CCN(C(=O)c3ccco3)CC2)c2c3c(sc2n1)CC(C)(C)CC3`, the EC50 in data set [4] amounted to 0.9 µM. Further, in data set [5], the Activity entry was “Non-Toxic”. In addition, the IC50 in data set [6] turned out to be 0.28 µM; in data set [7], 1.5 µM. The Ki in data set [1] and in data set [2] was greater than 4 µM throughout.

For `O=C(c1ccco1)N1CCN(c2ncnc3sc4c(c23)CCCC4)CC1`, in data set [6], the IC50 stood at 0.68 µM. The Ki in data set [1] and in data set [2] was greater than 4 µM each time.

For `Cc1nc(O)c(C)c(N2CCN(C(=O)c3ccco3)CC2)n1`, the inhibition result in data set [3] was “inactive”.

Regarding `O=C(c1ccco1)N1CCN(c2ncnc3sc(-c4ccccc4)cc23)CC1`, in data set [3], the inhibition entry is “inactive”.

Take `O=C(c1ccco1)N1CCN(c2c[nH]c(=O)cn2)CC1`: in data set [3], the inhibition entry was “inactive”.

Take `Cc1cc(C)c2nc(-c3ccccn3)cc(C(=O)N3CCN(C(=O)c4ccco4)CC3)c2c1`: the inhibition entry in data set [3] is “inactive”.

On to `O=C(c1ccco1)N1CCN(c2nc(CCl)nc3sc4c(c23)CCCC4)CC1`, for which the Ki in data set [1] and in data set [2] was greater than 4 µM in each case.

Turning to `Cc1nc(N2CCN(C(=O)c3ccco3)CC2)c2c3c(sc2n1)CC(C)CC3` (stereo not drawn), the half-maximal inhibitory concentration (IC50) in data set [8] was 0.43 µM.

`O=C(c1ccco1)N1CCN(c2nc(C3CC3)nc3sc4c(c23)CCCC4)CC1`: the IC50 in data set [8] is 0.86 µM.

For `Cc1ccc2c(c1)sc1nc(C)nc(N3CCN(C(=O)c4ccco4)CC3)c12`, the inhibition constant Ki in data set [1] and in data set [2] was greater than 4 µM throughout.

`Cc1nc(Nc2ccc(S(=O)(=O)Nc3onc(C)c3C)cc2)c2c3c(sc2n1)CCCC3`: the concentration for half-maximal inhibition (IC50) in data set [6] stood at 29.3 µM.

Turning to `O=c1cnc(Cl)c[nH]1`, the inhibition constant (Ki) in data set [1] and in data set [2] was greater than 4 µM throughout.

For `CC1(C)CCc2c(sc3nc(CN4CCOCC4)nc(N4CCN(C(=O)c5ccco5)CC4)c23)C1`, in data set [3], the inhibition result was “inactive”.

For `Cc1nc(Nc2ccc(S(=O)(=O)Nc3onc(C)c3C)cc2)c2c3c(sc2n1)CC(C)(C)CC3`, in data set [6], the IC50 was found to be 3.35 µM.

`Cc1c(N2CCN(C(=O)c3ccco3)CC2)nc(C)n(C)c1=O`: the inhibition result in data set [3] was “inactive”.

For the compound `Cc1cc(C)c2nc(-c3ccccn3)cc(C(=O)O)c2c1`, the Ki in data set [1] and in data set [2] was greater than 4 µM each time.

As to `Cc1nc(N2CCCN(C(=O)c3ccco3)CC2)c2c3c(sc2n1)CCCC3`, the Ki in data set [1] and in data set [2] was greater than 4 µM each time.

Consider `Cc1nc(N2CCCN(C(=O)c3ccco3)CC2)c2c3c(sc2n1)CC(C)(C)CC3`, for which the Ki in data set [1] and in data set [2] was greater than 4 µM each time.

For the compound `Cn1ncc2ncnc(N3CCN(C(=O)c4ccco4)CC3)c21`, in data set [3], the inhibition entry is “inactive”.

In the case of `CC1(C)CCc2c(sc3nc(CCO)nc(N4CCN(C(=O)c5ccco5)CC4)c23)C1`, the IC50 in data set [6] was found to be 11.7 µM.

For the compound `Cc1nc(N2CCN(C(=O)c3ccco3)CC2)c2c3c(sc2n1)CCCC3`, the figures for the IC50 in data set [6] and in data set [7] were 2.02 µM and 7.5 µM, respectively.

Regarding `COCCc1nc(N2CCN(C(=O)c3ccco3)CC2)c2c3c(sc2n1)CC(C)(C)CC3`, the inhibition result in data set [3] was “inactive”. Besides, the Ki in data set [1] and in data set [2] was greater than 4 µM throughout.

Consider `O=C(c1ccco1)N1CCN(c2ncnn3cccc23)CC1`, for which, in data set [3], the inhibition entry is “inactive”.

Regarding `CC1(C)CCc2c(sc3nc(CCN4CCOCC4)nc(N4CCN(C(=O)c5ccco5)CC4)c23)C1`, in data set [3], the inhibition result was “inactive”. Moreover, the Ki in data set [1] and in data set [2] was greater than 4 µM each time.
